Our source for the GI50 and TGI values is PubChem BioAssay (NCI).

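Five compound concentrations were applied to cells in 96-well plates for 48 hours; endpoints were derived by simple linear interpolation of the resulting dose-response curve. GI50 = concentration required for 50% inhibition of growth. The concentration for full growth arrest is given as TGI.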

Assay in all cases: NCI anticancer screen, dose series, 48 h
Experiment [1] relates to SK-MEL-5 melanoma.
The test system of experiment [2] is SW-620 colon.
Experiment [3] has as its system HT29 colon.
For experiment [4], the system named is MCF7 breast.
For experiment [5], the system named is MDA-MB-435.
Experiment [6] has as its system HCT-116 colon.
Experiment [7] relates to RXF 393 renal.
For experiment [8], the system named is NCI-H522 lung.
Experiment [9] has as its system 786-0 renal.
The subject of experiment [10] is NCI/ADR-RES ovarian.

With `COc1cc(OC)cc(C2CC(=O)Nc3c2c(C)nn3-c2nc3ccccc3[nH]2)c1` (stereo not given), the GI50 is 1.97 µM in experiment [1]; 3.31 µM in experiment [2]; 2.75 µM in experiment [3]; 2.94 µM in [4]; 2.76 µM in [5]; 1.97 µM in experiment [6]. The GI50 in experiment [7] is 3.21 µM; in experiment [8] it was 2.08 µM; in [9], 2.84 µM; in experiment [10], 4.47 µM. Moreover, the TGI in experiment [1] is 4.27 µM; in experiment [2] it was 12.9 µM; in experiment [3] it was 7.43 µM; in experiment [4], greater than 100 µM; in experiment [5] it was 7.88 µM; in experiment [6], 4.16 µM. For the same molecule, the TGI is 24.6 µM in experiment [7], 5.58 µM in experiment [8], 9.89 µM in [9] and greater than 100 µM in [10].
`COc1ccc(/C=N\NC(=O)CN2CCN(c3cc4c(cc3F)c(=O)c(C(=O)N/N=C/c3ccc(OC)c(OC)c3)cn4C3CC3)CC2)cc1OC`: the GI50 in experiment [1] was 3.69 µM; in experiment [2], 3.33 µM; in [3], 3.46 µM; in experiment [4], 3.21 µM; in [5] it was 2.02 µM; in experiment [6], 3.15 µM. The GI50 in [7] is 3.79 µM; in experiment [8], 3.66 µM; in experiment [9], 4.83 µM; in [10] it was greater than 100 µM. The TGI is 15.8 µM in experiment [1]; 16.8 µM in experiment [2]; greater than 100 µM in experiment [3]; greater than 100 µM in [4]; 3.97 µM in experiment [5]; 11.4 µM in experiment [6]. Besides, the TGI in [7] is 15.2 µM; in experiment [8], greater than 100 µM; in experiment [9], 22.6 µM; in experiment [10], greater than 100 µM.
For `O=C1c2ccccc2-c2c1c1ccccc1c(=O)n2CCCNCCCn1ccnc1`, the GI50 is 0.379 µM in experiment [1]; 0.24 µM in experiment [2]; 1.21 µM in experiment [3]; 0.772 µM in experiment [4]; 1.72 µM in experiment [5]; 0.598 µM in [6]. The GI50 is 1.48 µM in [7], 1.66 µM in experiment [8], 0.352 µM in experiment [9] and 1.66 µM in experiment [10]. The TGI in experiment [1] was 1.68 µM; in [2], 1.82 µM; in [3] it was greater than 33.4 µM; in [4], 12.7 µM; in experiment [5], 5.51 µM; in experiment [6], 2.01 µM. Further, the TGI is 4.31 µM in experiment [7], 9.29 µM in experiment [8], 2.24 µM in experiment [9] and 4.45 µM in [10].
In the case of `CC(O)c1cccc(NCc2c3ccccc3c(=O)n3c2oc2ccccc23)c1` (stereo not given), the GI50 is 4.87 µM in experiment [1]; 13.6 µM in [2]; 35.6 µM in experiment [3]; greater than 100 µM in experiment [4]; 18.4 µM in experiment [5]; 3.13 µM in experiment [6]. The GI50 is 22.5 µM in experiment [7], 5.55 µM in experiment [8], 4.18 µM in experiment [9] and 11.8 µM in [10]. The TGI is 31.6 µM in experiment [1]; greater than 100 µM in experiment [2]; greater than 100 µM in [3]; greater than 100 µM in [4]; greater than 100 µM in [5]; 14.4 µM in experiment [6]. Moreover, the TGI in experiment [7] was 67.8 µM; in experiment [8], 45.1 µM; in [9] it was 19.2 µM; in experiment [10], 28.5 µM.
For `NOCC(=O)O`, the GI50 is greater than 100 µM in [1]; greater than 100 µM in experiment [2]; 58.7 µM in experiment [3]; greater than 100 µM in [4]; greater than 100 µM in experiment [5]; 66.8 µM in experiment [6]. The GI50 in [7] is greater than 100 µM; in experiment [8], 25.9 µM; in experiment [9], greater than 100 µM; in experiment [10] it was greater than 100 µM. For the same molecule, the TGI in experiment [1], in [2], in [3], in experiment [4], in experiment [5] and in [6] was greater than 100 µM each time. The TGI in experiment [7], in [8], in experiment [9] and in experiment [10] was greater than 100 µM each time.
For the molecule `O=S(=O)(NC1=NCCN1C(=S)SN1CCn2c1nsc2=S)c1ccc(Br)cc1`, the GI50 in experiment [1] is 19.5 µM; in [2], 24.2 µM; in experiment [3], 42.5 µM; in experiment [4] it was 31.7 µM; in experiment [5] it was 27.6 µM; in experiment [6], 24.7 µM. For the same molecule, the GI50 is 17.8 µM in experiment [7], 15 µM in experiment [8], 31 µM in experiment [9] and greater than 100 µM in experiment [10]. In addition, the TGI in experiment [1] was 47.9 µM; in experiment [2], 73 µM; in experiment [3], greater than 100 µM; in experiment [4], greater than 100 µM; in experiment [5] it was greater than 100 µM; in [6] it was 73.2 µM. The TGI in experiment [7] is 51.4 µM; in experiment [8], 36.8 µM; in experiment [9], greater than 100 µM; in [10], greater than 100 µM.
As for `O=C1Nc2ccc(C(=O)c3ccco3)cc2/C1=C/c1cc(Cl)c(O)c(Cl)c1`, the GI50 in experiment [1] was 3.43 µM; in experiment [2], 4.8 µM; in experiment [3] it was 5.75 µM; in experiment [4] it was 6.1 µM; in experiment [5] it was 4.11 µM; in experiment [6] it was 1.87 µM. Besides, the GI50 in [7] was 2.77 µM; in experiment [8] it was 3.91 µM; in experiment [9], 4.29 µM; in experiment [10], 9.61 µM. The TGI in [1] was 6.88 µM; in experiment [2] it was greater than 23.8 µM; in experiment [3], greater than 21.2 µM; in [4] it was greater than 25 µM; in experiment [5] it was 24.2 µM; in [6], greater than 25 µM. Also, the TGI in [7] is 15.5 µM; in experiment [8], 11.9 µM; in experiment [9], 11.6 µM; in experiment [10], greater than 25 µM.
